Where only a bound is given, the exact number is not on record here.

60 compounds from ChEMBL document CHEMBL1139538, “ERbeta ligands. 3. Exploiting two binding orientations of the 2-phenylnaphthalene scaffold to achieve ERbeta selectivity” (J Med Chem, 2005) can be followed below.

One test addresses Estrogen receptor beta (Homo sapiens, UniProt Q92731).
Another test concerns the target T1, Estrogen receptor (Homo sapiens, UniProt P03372).
T1 sequence (P03372 whole entry): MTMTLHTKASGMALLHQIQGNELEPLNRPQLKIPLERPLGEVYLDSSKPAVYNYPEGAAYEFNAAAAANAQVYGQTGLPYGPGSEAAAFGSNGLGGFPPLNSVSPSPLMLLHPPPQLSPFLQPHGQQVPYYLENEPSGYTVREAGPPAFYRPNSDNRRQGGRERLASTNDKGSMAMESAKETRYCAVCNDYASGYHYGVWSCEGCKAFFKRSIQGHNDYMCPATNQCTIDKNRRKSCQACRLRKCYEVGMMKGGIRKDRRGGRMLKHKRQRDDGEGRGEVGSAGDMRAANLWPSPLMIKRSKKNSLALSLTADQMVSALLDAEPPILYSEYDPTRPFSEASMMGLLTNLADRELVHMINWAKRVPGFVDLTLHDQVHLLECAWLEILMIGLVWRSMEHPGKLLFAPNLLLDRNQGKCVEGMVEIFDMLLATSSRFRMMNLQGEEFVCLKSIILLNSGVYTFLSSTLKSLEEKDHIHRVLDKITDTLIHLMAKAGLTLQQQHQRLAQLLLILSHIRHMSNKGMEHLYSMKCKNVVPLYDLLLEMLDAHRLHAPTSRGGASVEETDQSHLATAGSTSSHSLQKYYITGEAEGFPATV

The target of test [1] is T2, Estrogen receptor (Rattus norvegicus) (UniProt P06211+Q62986).
Description: Effect on uterine weight in immature rats in combination with 17R-ethinyl-17-beta-estradiol after 3 days
The test system of test [2] is Rattus norvegicus. The test can be described thus: Effect of oral administration of 1 mg/kg compound on colon histology (haemoglobin) in HLA-B27 transgenic rats. The test is classed as functional.
The target of test [3] is T2, Estrogen receptor (Rattus norvegicus). This is another data set of the same source.
Description: Effect on uterine weight of immature rats at 2 mg/rat/day dose after 3 days
Test [4] deals with Rattus norvegicus. Kind of test: Effect of oral administration of 10 mg/kg compound on colon histology (haemoglobin) in HLA-B27 transgenic rats. Type of test: functional.

Chain of Estrogen receptor beta (Q92731 whole entry): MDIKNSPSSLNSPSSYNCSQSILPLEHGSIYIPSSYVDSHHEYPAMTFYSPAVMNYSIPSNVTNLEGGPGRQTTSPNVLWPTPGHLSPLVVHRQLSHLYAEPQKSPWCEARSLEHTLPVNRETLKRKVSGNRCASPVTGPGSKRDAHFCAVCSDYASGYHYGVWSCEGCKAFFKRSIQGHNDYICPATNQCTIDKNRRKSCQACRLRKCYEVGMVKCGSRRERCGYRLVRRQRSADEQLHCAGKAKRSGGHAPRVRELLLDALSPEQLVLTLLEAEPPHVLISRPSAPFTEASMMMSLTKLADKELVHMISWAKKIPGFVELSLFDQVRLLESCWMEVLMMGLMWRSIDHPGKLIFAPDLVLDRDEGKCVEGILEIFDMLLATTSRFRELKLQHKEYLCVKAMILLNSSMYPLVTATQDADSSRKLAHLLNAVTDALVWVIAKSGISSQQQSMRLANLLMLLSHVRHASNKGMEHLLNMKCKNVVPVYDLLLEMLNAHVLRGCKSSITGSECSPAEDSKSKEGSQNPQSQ

Consider `Oc1ccc(-c2ccc3cc(O)ccc3c2)c(F)c1`, for which the figures for the IC50 on Estrogen receptor beta and against Estrogen receptor were 2 nM and 24 nM, respectively.
For `Oc1ccc(-c2ccc3c(Cl)c(O)ccc3c2)c(F)c1`, in that order: 1.2 nM and 58 nM.
For `Oc1cccc(-c2ccc3c(O)cccc3c2)c1`, in that order: 205 nM and 1450 nM.
With `N#Cc1cc(-c2ccc(O)cc2)cc2ccc(O)c(Cl)c12`, the IC50 worked out at 6 nM on Estrogen receptor beta and 109 nM at Estrogen receptor.
As to `N#Cc1cc(-c2c(F)cc(O)cc2F)cc2ccc(O)cc12`, the concentration for half-maximal inhibition (IC50) against Estrogen receptor beta stood at 2.2 nM; at Estrogen receptor, 45 nM.
For `Oc1ccc2cc(-c3cc(F)c(O)cc3F)ccc2c1`, in that order: 2.8 nM and 27 nM.
The matching figures for `N#Cc1cc(-c2ccc(O)cc2F)cc2ccc(O)cc12`: 0.5 nM and 26 nM.
As to `N#Cc1cc(O)c(Br)c2ccc(-c3ccc(O)c(F)c3)cc12`, the IC50 is 4.5 nM against Estrogen receptor beta and 116 nM on Estrogen receptor.
For `Oc1cc(F)c(-c2ccc3cc(O)ccc3c2)c(F)c1`, in that order: 2.3 nM and 10.3 nM.
The matching figures for `N#Cc1cc(-c2cc(F)c(O)cc2F)cc2ccc(O)cc12`: 6.9 nM and 186 nM.
The matching figures for `Oc1ccc(-c2cc(F)c3c(Cl)c(O)ccc3c2)cc1`: 1.1 nM and 40 nM.
As to `Oc1ccc(-c2ccc3ccccc3c2)cc1`, the midpoint of inhibition at Estrogen receptor, the IC50, lay at 638 nM.
For the compound `Oc1ccc(-c2ccc3c(Cl)c(O)ccc3c2)c(Cl)c1`, the values for the IC50 against Estrogen receptor beta and at Estrogen receptor were 3.3 nM and 36 nM, respectively.
`N#Cc1cc(O)cc2ccc(-c3ccc(O)cc3)cc12`: the IC50 at Estrogen receptor beta is 2 nM; against Estrogen receptor, 84 nM.
For `N#Cc1cc(O)cc2ccc(-c3ccc(O)c(F)c3)cc12`, in that order: 2.1 nM and 96 nM.
The matching figures for `N#Cc1cc(O)c(Cl)c2ccc(-c3ccc(O)cc3)cc12`: 3 nM and 98 nM.
For `Oc1ccc2cc(-c3ccccc3)ccc2c1`, in that order: 374 nM and 1340 nM.
On to `C#Cc1cc(-c2ccc(O)c(F)c2)cc2ccc(O)cc12`, for which the results for the IC50 against Estrogen receptor beta and against Estrogen receptor were 6.3 nM and 247 nM, respectively.
For `N#Cc1cc(-c2ccc(O)c(F)c2)cc2ccc(O)cc12`, the Weight came to 81.9 mg in test [1] and 23.3 mg in test [3]. For the same compound, the figures for the Activity in the test on Rattus norvegicus [2] and in the test on Rattus norvegicus [4] were 0.45 mg/mL and 0.35 mg/mL, respectively.
As for `Cc1c(O)cc(C#N)c2cc(-c3ccc(O)c(F)c3)ccc12`, the IC50 worked out at 6 nM at Estrogen receptor beta and 406 nM on Estrogen receptor.
For `O=[N+]([O-])c1c(O)ccc2cc(-c3ccc(O)cc3)ccc12`, in that order: 199 nM and 709 nM.
On to `Oc1cccc(-c2ccc3ccc(O)cc3c2)c1`, for which the IC50 on Estrogen receptor beta was 566 nM; against Estrogen receptor, 2640 nM.
`Oc1ccc2cc(-c3cc(F)c(O)c(F)c3)ccc2c1`: the IC50 against Estrogen receptor beta was 8.4 nM.
Regarding `Oc1ccc(-c2ccc3c(Cl)c(O)ccc3c2)cc1F`, half-maximal inhibition at Estrogen receptor beta (IC50) was put at 4 nM.
On Estrogen receptor beta, `Oc1ccc(-c2ccc3c(O)cccc3c2)cc1` showed an IC50 of 5.8 nM.
Turning to `C=Cc1cc(-c2ccc(O)c(F)c2)cc2ccc(O)cc12`, the IC50 on Estrogen receptor beta was 4.4 nM; against Estrogen receptor, 254 nM.
For the compound `CCc1cc(O)cc2ccc(-c3ccc(O)c(F)c3)cc12`, the IC50 was determined as 2.5 nM against Estrogen receptor beta and 113 nM on Estrogen receptor.
`Oc1ccc(-c2ccc3c(-c4ccccc4)c(O)ccc3c2)cc1`: the IC50 is 748 nM on Estrogen receptor beta and 1230 nM at Estrogen receptor.
For `O=Cc1cc(-c2ccc(O)c(F)c2)cc2ccc(O)cc12`, in that order: 3.4 nM and 231 nM.
For the compound `Oc1ccc(-c2cc(Cl)c3cc(O)ccc3c2)cc1`, the IC50 against Estrogen receptor beta came out at 2.3 nM; on Estrogen receptor, 30 nM.
At Estrogen receptor beta, `Oc1ccc2cc(-c3cc(F)c(O)c(F)c3)ccc2c1Cl` yielded an IC50 of 10.6 nM.
Take `Oc1ccc(-c2ccc3c(Br)c(O)ccc3c2)cc1`: the results for the IC50 against Estrogen receptor beta and on Estrogen receptor were 13 nM and 266 nM, respectively.
For the compound `Cc1cc(O)ccc1-c1ccc2cc(O)ccc2c1`, the IC50 against Estrogen receptor beta came to 10 nM; on Estrogen receptor it was 40 nM.
At Estrogen receptor, `Oc1ccc2ccc(-c3ccccc3)cc2c1` displayed an IC50 of 3400 nM. That is a single-digit micromolar value.
Take `Oc1ccc(-c2ccc3ccc(O)cc3c2)cc1`: the IC50 came out at 44 nM against Estrogen receptor beta and 442 nM against Estrogen receptor.
For `C#Cc1cc(O)cc2ccc(-c3ccc(O)c(F)c3)cc12`, in that order: 1.2 nM and 73 nM.
The matching figures for `Oc1ccc2cc(-c3ccccc3O)ccc2c1`: 2000 nM and over 5000 nM.
For `Oc1ccc2cc(-c3ccc(O)c(Cl)c3)ccc2c1`, in that order: 11 nM and 107 nM.
With `Oc1ccc(-c2ccc3c(Cl)c(O)ccc3c2)cc1`, 91 nM corresponded to half-maximal inhibition against Estrogen receptor (IC50).
Turning to `N#Cc1cc(-c2ccc(O)cc2)cc2ccc(O)c(Br)c12`, the IC50 against Estrogen receptor beta is 12 nM; against Estrogen receptor, 131 nM.
Turning to `C=Cc1cc(O)cc2ccc(-c3ccc(O)c(F)c3)cc12`, the IC50 amounted to 7.3 nM on Estrogen receptor beta and 527 nM on Estrogen receptor.
The compound `Cc1cc(O)ccc1-c1ccc2c(Cl)c(O)ccc2c1` displayed a half-maximal inhibitory concentration (IC50) at Estrogen receptor of 40 nM.
Same read-out and setting: with `COc1cc(O)ccc1-c1ccc2cc(O)ccc2c1` the figure was 174 nM.
Take `Oc1ccc(-c2cc(Cl)c3c(Cl)c(O)ccc3c2)cc1`: the IC50 against Estrogen receptor beta was determined as 9 nM; against Estrogen receptor, 43 nM.
For `N#Cc1cc(O)c(C#N)c2ccc(-c3ccc(O)c(F)c3)cc12`, in that order: 28 nM and 877 nM.
Consider `CC#Cc1cc(-c2ccc(O)c(F)c2)cc2ccc(O)cc12`, for which the IC50 against Estrogen receptor beta was determined as 10 nM; on Estrogen receptor it was 343 nM.
In the case of `CCc1cc(-c2ccc(O)c(F)c2)cc2ccc(O)cc12`, the IC50 stood at 2.4 nM against Estrogen receptor beta and 235 nM on Estrogen receptor.
As to `Oc1ccc(-c2ccc3cc(O)ccc3c2)c(Cl)c1`, half-maximal inhibition at Estrogen receptor beta (IC50) was put at 1.4 nM.
Turning to `Oc1ccc2cc(-c3ccc(O)c(F)c3)ccc2c1`, the IC50 on Estrogen receptor beta is 5 nM. Against the preceding compound, the IC50 is about 3.6-fold higher.
Turning to `Oc1ccc(-c2ccc3cc(O)ccc3c2)cc1`, the values for the IC50 on Estrogen receptor beta and against Estrogen receptor were 16.3 nM and 211 nM, respectively.
For `Oc1cc(F)c(-c2ccc3c(Cl)c(O)ccc3c2)c(F)c1`, in that order: 3.4 nM and 35 nM.
For `N#Cc1cc(O)c(Cl)c2ccc(-c3ccc(O)c(F)c3)cc12`, the IC50 against Estrogen receptor beta came out at 2.6 nM; at Estrogen receptor, 55 nM.
The matching figures for `Oc1ccc(-c2ccc3c(F)c(O)ccc3c2)cc1`: 7 nM and 77 nM.
For `Oc1ccc(-c2cc(F)c3cc(O)ccc3c2)cc1`, in that order: 1.6 nM and 22 nM.
For `Oc1cccc(-c2ccc3cc(O)ccc3c2)c1`, on Estrogen receptor beta, the midpoint of inhibition, the IC50, lay at 30 nM. That is a double-digit nanomolar value.
`CC#Cc1cc(O)cc2ccc(-c3ccc(O)c(F)c3)cc12`: the results for the IC50 against Estrogen receptor beta and against Estrogen receptor were 5.5 nM and 180 nM, respectively.
The matching figures for `Oc1ccc2cc(-c3ccc(O)c(F)c3)cc(F)c2c1`: 1.5 nM and 21 nM.
On to `Oc1cc(F)c(-c2ccc3c(Cl)c(O)ccc3c2)cc1F`, for which the IC50 at Estrogen receptor beta came out at 8.5 nM; against Estrogen receptor it was 118 nM.
Take `N#Cc1cc(-c2ccc(O)c(F)c2)cc2ccc(O)c(F)c12`: the IC50 against Estrogen receptor beta amounted to 5.6 nM; at Estrogen receptor it was 312 nM.
The matching figures for `O=Cc1cc(O)cc2ccc(-c3ccc(O)c(F)c3)cc12`: 1.1 nM and 73 nM.
